In US20230364101A1, “DICLOFENAC PRODRUG AND USE OF THE SAME” (Pumont Biotech Co., Ltd., priority 2022, published 2023):
Converted amounts (≈) assume the structure as drawn.

Assays:
[1] = Solubility test using potassium phosphate buffer at pH 7.4; assay type: physicochemical; conditions: 5 mg prodrug in 10 mL potassium phosphate buffer pH 7.4, 37° C., HPLC-UV 254 nm; for solubility at 24 h: potassium phosphate buffer, 37 °C, pH 7.4, aqueous buffer, thermodynamic from solid, read-out: Solubility after 24 hours
Procedure: First, a respective one of the diclofenac prodrugs of EX5 to EX8 and EX12 was mixed with a potassium phosphate buffer (including 50 mM potassium phosphate, sodium chloride, and water; pH 7.4) and then placed in a constant temperature oscillator at 37° C. for 24 hours so as to dissolve the diclofenac prodrug, thereby obtaining a test sample. After that, the test sample was filtered through a filter having a pore size of 0.22 μm to obtain a filtrate. Next, the filtrate was mixed with acetonitrile in equal amounts, and then subjected to oscillation and centrifugation performed in sequence. The resultant supernatant fraction was subjected to HPLC with UV detection under a wavelength of 254 nm.

[2] = Determination of particle size (D90) after grinding; assay type: physicochemical; conditions: after grinding with mortar and homogenizer in 0.125 wt % Tween 20; initial particle size about 60 μm
Source text: The solid particles of the diclofenac prodrugs of EX5 and EX8 were subjected to grinding in order to be formulated into a soluble liquid suspension suitable for intraarticular injection. In general, first, the solid particles of diclofenac prodrugs and deionized water were mixed to form a liquid suspension. Next, the liquid suspension was ground using a homogenizer and then subjected to oscillation treatment to obtain a test sample. Then, the test sample was subjected to determination of particle size distribution. Afterwards, the test sample includes solid particles having a size ranging from 20 μm to 30 μm was centrifuged and lyophilized, followed by determination of purity using HLPC. […]
(§1) To be specific, 100 mg of the diclofenac prodrug of EX5 having an initial particle size of about 60 μm was manually ground using a mortar, and then mixed with 2.0 mL of an aqueous solution containing 0.125 wt % of Tween 20 and deionized water, so as to obtain a slurry. […] The thus determined average particle size D90 of the diclofenac prodrug of EX5 was 8.4 μm.
as §1, with “Meanwhile, 102” for “To be specific, 100”, “EX8” for “EX5”, “saline,” for “deionized water,”, “18.2” for “8.4”

| SMILES | Solubility after 24 hours [1] [µg/mL] | Solubility after 24 hours ([1]; listed as EX5 (crystalline)) [µg/mL] | average particle size D90 [2] [μm] | solubility at 24 h [1] [µg/mL] |
| --- | --- | --- | --- | --- |
| O=C(Cc1ccccc1Nc1c(Cl)cccc1Cl)OCOC(=O)N1CCOCC1 [EX5 (amorphous), (2-(2-((2,6-dichlorophenyl)amino)phenyl)acetoxy)methyl morpholine-4-carboxylate] | 4.24 (≈ 9.65 µM) |  |  |  |
| O=C(Cc1ccccc1Nc1c(Cl)cccc1Cl)OCOC(=O)N1CCOCC1 [EX5, (2-(2-((2,6-dichlorophenyl)amino)phenyl)acetoxy)methyl morpholine-4-carboxylate] |  | 0.06 (≈ 0.137 µM) | 8.4 |  |
| CC1(C)OCC(COC(=O)OCOC(=O)Cc2ccccc2Nc2c(Cl)cccc2Cl)O1 (stereo not shown) [EX6, ((((2,2-dimethyl-1,3-dioxolan-4-yl)methoxy)carbonyl)oxy)methyl 2-(2-((2,6-dichlorophenyl)amino)phenyl)acetate] |  |  |  | 0.33 (≈ 0.681 µM) |
| O=C(Cc1ccccc1Nc1c(Cl)cccc1Cl)OCOC(=O)OCC(O)CO (stereo not shown) [EX7, (((2,3-dihydroxypropoxy)carbonyl)oxy)methyl 2-(2-((2,6-dichlorophenyl)amino)phenyl)acetate] |  |  |  | 269 (≈ 604 µM) |
| O=C(Cc1ccccc1Nc1c(Cl)cccc1Cl)OCOC(=O)OCCCO [EX8, (((3-hydroxypropoxy)carbonyl)oxy)methyl 2-(2-((2,6-dichlorophenyl)amino)phenyl)acetate] |  |  | 18.2 | 28.4 (≈ 66.4 µM) |
